In patent US6376497B1, “Antifungal azole derivatives having a fluorinated vinyl group and process for preparing same” (Korea Research Institute of Chemical Technology, priority 1999, dated 2002):

Experiments:
Test in all cases: In vitro antifungal activity, microbroth dilution MIC
Assay type in all cases: cell-based
[1] = tested on: Cryptococcus neoformans IFM. 40092; settings: for Minimal inhibitory concentration (MIC): Cry. neoformans IFM. 40092, RPMI-1640, 35° C.; for Minimal inhibitory concentration(MIC), Cry. neoformans IFM. 40092: RPMI-1640, 35° C., no growth observed
Method in brief: (§1)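 Broth microdilution adapted from NCCLS M27, in RPMI-1640 with 0.165 M MOPS, pH 7.0. Yeast or mould inoculum at 2×10^3 CFU/ml was mixed 1:1 with DMSO-derived compound solutions (200 to 0.10 μg/ml before mixing) and incubated at 35 °C for 4 to 48 h. MIC was the concentration showing no growth.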

[2] = tested on: Aspergillus niger A. 16404; settings: for Minimal inhibitory concentration (MIC): A. niger A. 16404, RPMI-1640, 35° C.; for Minimal inhibitory concentration(MIC), A. niger A. 16404: RPMI-1640, 35° C., no growth observed
Method in brief: as §1

[3] = tested on: Torulopsis glabrata B. 16205; settings: 4 to 48 hours; for Minimal inhibitory concentration (MIC): T. glabrata B. 16205, RPMI-1640, 35° C.; for Minimal inhibitory concentration(MIC), T. glabrata B. 16205: RPMI-1640, 35° C., no growth observed
Method in brief: as §1

Candida krusei K. 11655 = settings: 4 to 48 hours; for Minimal inhibitory concentration (MIC): C. krusei K. 11655, RPMI-1640, 35° C.; for Minimal inhibitory concentration(MIC), C. krusei K. 11655: RPMI-1640, 35° C., no growth observed
Method in brief: as §1

[4] = tested on: Candida tropicalis A. 13803; settings: 4 to 48 hours; for Minimal inhibitory concentration (MIC): C. tropicalis A. 13803, RPMI-1640, 35° C.; for Minimal inhibitory concentration(MIC), C. tropicalis A. 13803: RPMI-1640, 35° C., no growth observed
Method in brief: as §1

Candida albicans C1-2 = settings: 4 to 48 hours; for Minimal inhibitory concentration (MIC): C. albicans C1-2, RPMI-1640, 35° C.; for Minimal inhibitory concentration(MIC), C. albicans C1-2: RPMI-1640, 35° C., no growth observed
Method in brief: as §1

[5] = tested on: Candida pseudotropicalis K. 11658; settings: 4 to 48 hours; for Minimal inhibitory concentration (MIC): C. pseudotropicalis K. 11658, RPMI-1640, 35° C.; for Minimal inhibitory concentration(MIC), C. pseudotropicalis K. 11658: RPMI-1640, 35° C., no growth observed
Method in brief: as §1

[6] = tested on: Trichophyton mentagrophytes A. 9129; settings: for Minimal inhibitory concentration (MIC): T. mentagrophytes A. 9129, RPMI-1640, 35° C.; for Minimal inhibitory concentration(MIC), T. mentagrophytes A. 9129: RPMI-1640, 35° C., no growth observed
Method in brief: as §1

[7] = tested on: Candida albicans A. 10231; settings: 4 to 48 hours; for Minimal inhibitory concentration (MIC): C. albicans A. 10231, RPMI-1640, 35° C.; for Minimal inhibitory concentration(MIC), C. albicans A. 10231: RPMI-1640, 35° C., no growth observed
Method in brief: as §1

[8] = tested on: Aspergillus furnigatus B. 19119; settings: for Minimal inhibitory concentration (MIC): A furnigatus B. 19119, RPMI-1640, 35° C.; for Minimal inhibitory concentration(MIC), A furnigatus B. 19119: RPMI-1640, 35° C., no growth observed
Method in brief: as §1

[9] = tested on: Candida albicans IFO. 1385; settings: 4 to 48 hours; for Minimal inhibitory concentration (MIC): C. albicans IFO. 1385, RPMI-1640, 35° C.; for Minimal inhibitory concentration(MIC), C. albicans IFO. 1385: RPMI-1640, 35° C., no growth observed
Method in brief: as §1

[10] = tested on: Trichophyton mentagrophytes B. 32663; settings: for Minimal inhibitory concentration (MIC): T. mentagrophytes B. 32663, RPMI-1640, 35° C.; for Minimal inhibitory concentration(MIC), T. mentagrophytes B. 32663: RPMI-1640, 35° C., no growth observed
Method in brief: as §1

[11] = tested on: Candida parapsitosis A. 7330; settings: 4 to 48 hours; for Minimal inhibitory concentration (MIC): C. parapsitosis A. 7330, RPMI-1640, 35° C.; for Minimal inhibitory concentration(MIC), C. parapsitosis A. 7330: RPMI-1640, 35° C., no growth observed
Method in brief: as §1

[12] = tested on: Cryptococcus neoformans A. 34144; settings: for Minimal inhibitory concentration (MIC): Cry. neoformans A. 34144, RPMI-1640, 35° C.; for Minimal inhibitory concentration(MIC), Cry. neoformans A. 34144: RPMI-1640, 35° C., no growth observed
Method in brief: as §1

[13] = tested on: Cryptococcus neoformans B. 42419; settings: 4 to 48 hours; for Minimal inhibitory concentration (MIC): Cry. neoformans B. 42419, RPMI-1640, 35° C.; for Minimal inhibitory concentration(MIC), Cry. neoformans B. 42419: RPMI-1640, 35° C., no growth observed
Method in brief: as §1

SMILES	Minimal inhibitory concentration (MIC) ([1]; 4 to 48 hours)	Minimal inhibitory concentration (MIC) ([2]; 4 to 48 hours)	Minimal inhibitory concentration (MIC) [3]	Minimal inhibitory concentration (MIC) (Candida krusei K. 11655)	Minimal inhibitory concentration (MIC) [4]	Minimal inhibitory concentration (MIC) (Candida albicans C1-2)	Minimal inhibitory concentration (MIC) [5]	Minimal inhibitory concentration (MIC) ([6]; 4 to 48 hours)	Minimal inhibitory concentration (MIC) [7]	Minimal inhibitory concentration (MIC) ([8]; 4 to 48 hours)	Minimal inhibitory concentration (MIC) [9]	Minimal inhibitory concentration (MIC) ([10]; 4 to 48 hours)	Minimal inhibitory concentration (MIC) [11]	Minimal inhibitory concentration (MIC) ([12]; 4 to 48 hours)	Minimal inhibitory concentration (MIC) [13]	Minimal inhibitory concentration(MIC), T. glabrata B. 16205 [3]	Minimal inhibitory concentration(MIC), C. krusei K. 11655 (Candida krusei K. 11655)	Minimal inhibitory concentration(MIC), C. tropicalis A. 13803 [4]	Minimal inhibitory concentration(MIC), C. albicans C1-2 (Candida albicans C1-2)	Minimal inhibitory concentration(MIC), C. pseudotropicalis K. 11658 [5]	further results
COc1cccc(C(=C(F)OCC2COC(Cn3ccnc3)(c3ccc(F)cc3F)O2)C(F)(F)F)c1 (mixture of isomers) [Ex. 60]	0.20 µg/mL	100 µg/mL	6.25 µg/mL	>100 µg/mL	100 µg/mL	12.5 µg/mL	100 µg/mL	6.25 µg/mL	12.5 µg/mL	12.5 µg/mL	0.78 µg/mL	3.13 µg/mL	>100 µg/mL	1.56 µg/mL	1.56 µg/mL						
COc1ccc(C(=C(F)OCC2COC(Cn3ccnc3)(c3ccc(F)cc3F)O2)C(F)(F)F)cc1 (mixture of isomers) [Ex. 61]	0.20 µg/mL	100 µg/mL	6.25 µg/mL	>100 µg/mL	100 µg/mL	12.5 µg/mL	100 µg/mL	6.25 µg/mL	12.5 µg/mL	12.5 µg/mL	0.78 µg/mL	3.13 µg/mL	>100 µg/mL	1.56 µg/mL	1.56 µg/mL						
FC(=C(c1ccc(Cl)cc1)C(F)(F)F)N1CCN(c2ccc(OCC3COC(Cn4ccnc4)(c4ccc(F)cc4F)O3)cc2)CC1 (mixture of isomers) [Ex. 149]																50.0 µg/mL	0.39 µg/mL	>100 µg/mL	>100 µg/mL	0.39 µg/mL	Minimal inhibitory concentration(MIC), Cry. neoformans IFM. 40092 [1]: ≦0.10 μg/ml; Minimal inhibitory concentration(MIC), A. niger A. 16404 [2]: 100 µg/mL; Minimal inhibitory concentration(MIC), T. mentagrophytes A. 9129 [6]: 3.13 µg/mL; Minimal inhibitory concentration(MIC), C. albicans A. 10231 [7]: >100 µg/mL; Minimal inhibitory concentration(MIC), A furnigatus B. 19119 [8]: 6.25 µg/mL; Minimal inhibitory concentration(MIC), C. albicans IFO. 1385 [9]: 0.39 µg/mL; Minimal inhibitory concentration(MIC), T. mentagrophytes B. 32663 [10]: ≦0.10 μg/ml; Minimal inhibitory concentration(MIC), C. parapsitosis A. 7330 [11]: 0.78 µg/mL; Minimal inhibitory concentration(MIC), Cry. neoformans A. 34144 [12]: 0.78 µg/mL; Minimal inhibitory concentration(MIC), Cry. neoformans B. 42419 [13]: 0.39 µg/mL
Cc1ccc(C(=C(F)Oc2ccc(OCC3COC(Cn4cncn4)(c4ccc(Cl)cc4Cl)O3)cc2)C(F)(F)F)cc1 (mixture of isomers) [Ex. 120]																50.0 µg/mL	>100 µg/mL	100 µg/mL	25.0 µg/mL	>100 µg/mL	Minimal inhibitory concentration(MIC), Cry. neoformans IFM. 40092 ([1]; 4 to 48 hours): 0.39 µg/mL; Minimal inhibitory concentration(MIC), A. niger A. 16404 ([2]; 4 to 48 hours): >100 µg/mL; Minimal inhibitory concentration(MIC), T. mentagrophytes A. 9129 ([6]; 4 to 48 hours): 6.25 µg/mL; Minimal inhibitory concentration(MIC), C. albicans A. 10231 [7]: 25.0 µg/mL; Minimal inhibitory concentration(MIC), A furnigatus B. 19119 ([8]; 4 to 48 hours): >100 µg/mL; Minimal inhibitory concentration(MIC), C. albicans IFO. 1385 [9]: 1.56 µg/mL; Minimal inhibitory concentration(MIC), T. mentagrophytes B. 32663 ([10]; 4 to 48 hours): 3.13 µg/mL; Minimal inhibitory concentration(MIC), C. parapsitosis A. 7330 [11]: >100 µg/mL; Minimal inhibitory concentration(MIC), Cry. neoformans A. 34144 ([12]; 4 to 48 hours): 1.56 µg/mL; Minimal inhibitory concentration(MIC), Cry. neoformans B. 42419 [13]: 3.13 µg/mL
